Data on 1 compound can be found in article PMC6283615, “Anilinoquinoline based inhibitors of trypanosomatid proliferation” (PLoS Neglected Tropical Diseases, 2018).

Values after ≈ are worked out from the molar mass of the structure shown.

Data set [1] relates to T. cruzi amastigote (Tulahuen strain expressing β-galactosidase). The data set can be described thus: Intracellular T. cruzi assay in 3T3 cells (beta-galactosidase, 96 h). The settings on record: Trypanosoma cruzi, TULAHUEN, NIH3T3; intracellular in 3T3 cells, 96 h; read-out: T. cruzi amastigote EC50. Format: cell-based, Trypanosoma cruzi. The method in brief: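 3T3 cells in phenol-red-free DMEM with 2% FBS were infected with Tulahuen β-galactosidase trypomastigotes, 5×10^4 per well, and exposed to compounds from 50 μM in 1:2 serial dilutions, in triplicate. After 96 h at 37°C, 5% CO2, 500 μM CPRG in PBS with 0.5% NP40 was added for 4 h; absorbance was read at 590–595 nm.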

Data set [2] deals with L. major amastigote. The data set can be described thus: L. major intracellular amastigote luciferase assay in RAW 264.7 macrophages. It is filed as cell-based, Leishmania major. To be noted: Leishmania major, RAW264.7; intracellular amastigotes in RAW 264.7 macrophages, 96 h. The method in brief: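 Murine RAW 264.7 macrophages were infected overnight with luciferase-expressing L. major metacyclic promastigotes (MOI 1:10). Non-internalized parasites were washed off before 96 h compound exposure (0.5–10,000 ng/mL) at 37°C, 5% CO2.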

On the set-up of data set [3]: method as in PMID 29301082. To be noted: lapatinib, Fig 1; cited from earlier work.
Data set [4] concerns P. fal. D6. Also noted: method as in PMID 26087257, PMID 29301082. The settings on record: previously reported; cited from earlier work.

The term EC50 denotes the midpoint of the concentration-response curve. By solubility is commonly meant the dissolved amount per volume that the medium holds. Turning to `CS(=O)(=O)CCNCc1ccc(-c2ccc3ncnc(Nc4ccc(OCc5cccc(F)c5)c(Cl)c4)c3c2)o1` [Lapatinib, lapatinib, reference compound], the EC50 in data set [1] was 13 µM; in data set [2] it was 11 µM; in data set [4], 470 nM. Moreover, the solubility in data set [3] is 12 µM (≈ 6.97 µg/mL).
